Entries after “also recorded” stand apart in the source; their conditions may differ. Counter-ions that a name gives are not always drawn.
Columns and labels:
Type in all cases: physicochemical
[1] = Chemical stability tests on storage under humidity and temperature conditions
Procedure: Chemical stability tests were carried out on aliquots of the salt form of interest by placing a accurately weighed sample of the salt form of the compound of Formula I into a polyethylene bag. The bagged samples were enclosed in fiberboard tubes fitted with metal caps which were stored under the indicated conditions of humidity and temperature for the indicated time. Analysis was carried out by dissolving the contents of a vial and quantifying the amount of solute utilizing HPLC analysis. Where noted the aliquots were stored in capped amber vials under the conditions noted instead of polyethylene bags.
(§1) The stability of the crystalline monohydrate hydrochloride salt form of the compound of Formula I was also examined using the procedure described above for samples contained in polyethylene bags by exposing samples to the following conditions: (a) 60% relative humidity (RH) at 4° C. for twelve months, at 25° C. for eighteen months, and at 50° C. for one month; (b) 40° C. and 75% relative humidity (RH) for twelve weeks, and (c) 70° C. at ambient humidity for one hour. Samples of the crystalline monohydrate hydrochloride form I salt were also tested for one cycle of ICH UV/Vis light stress conditions.
(§2) The stability of the crystalline tosylate form I salt form of the compound of Formula I was examined by placing weighed amounts of the salt into clear glass vials and storing them under the indicated conditions. Periodically a vial was removed and the contents examined for decomposition of the compound. Accordingly, samples of the tosylate form I salt were exposed to the following conditions: (a) 40° C. and 75% relative humidity (RH) for four weeks; (b) 50° C. and ambient relative humidity for four weeks; and (c) 70° C. for one hour. Samples of the tosylate form I salt were separately tested for one cycle of ICH UV/Vis light stress conditions.

[2] = ICH UV/Vis light stress conditions; conditions: one cycle of ICH UV/Vis light stress conditions
Procedure: as §1, §2

[3] = Solubility tests (equilibrated slurry, HPLC quantification); conditions: for aqueous solubility: water, pH of 4 or less (more acidic)
Procedure: Solubility tests were conducted by placing an excess of the compound in an aliquot of the solvent of interest and allowing the slurry to equilibrate under the selected temperature conditions (typically ambient). When the solvent was water, pH was adjusted to the desired value with hydrochloric acid and sodium hydroxide. When the slurry mixture had equilibrated, the excess solids were centrifuged (water) or filtered (all other solvents) from the supernatant and the amount of compound which had been dissolved was quantified utilizing HPLC analysis of diluted aliquots of the supernatant liquid. Pharmaceutical grade solvents were employed.

[4] = solvent Ethanol, ambient temperature
[5] = solvent Glycerin, ambient temperature
[6] = solvent PEG 400, ambient temperature
[7] = solvent Propylene Glycol, ambient temperature

temperature up to which the salt is stable ([1]; 70° C. at ambient humidity for one hour, polyethylene bags)	stability under light stress [2]	Solubility (mg/ml, ambient conditions) [3, 4] [mg/mL]	Solubility (mg/ml, ambient conditions) [3, 5] [mg/mL]	Solubility (mg/ml, ambient conditions) [3, 6] [mg/mL]	Solubility (mg/ml, ambient conditions) [3, 7] [mg/mL]	aqueous solubility [3]	stability under all tested conditions ([1]; clear glass vials, 40° C./75% RH four weeks, 50° C./ambient RH four weeks, 70° C. one hour, one cycle ICH UV/Vis light stress)	SMILES	stability at ambient/room temperature over relative humidity range ([1]; ambient temperature, about 5% to about 95% relative humidity)	form change on storage ([1]; storage under ambient conditions of temperature and humidity after dehydration)
about 70 °C	stable under light stress conditions	185	16	20	160	at least 1.0 mg/ml		C[C@@H](OC[C@@]1(c2ccccc2)CC[C@]2(CCC(=O)N2)CN1)c1cc(C(F)(F)F)cc(C(F)(F)F)c1 [monohydrate hydrochloride form I salt, (5S,8S)-8-[{(1R)-1-(3,5-Bis-(trifluoromethyl)phenyl)-ethoxy}-methyl]-8-phenyl-1,7-diazaspiro[4.5]decan-2-one]	does not decompose or dehydrate; also recorded: stable at room temperature	
		75	2.5	1.8	20	at least 0.38 mg/ml	stable under all tested conditions	C[C@@H](OC[C@@]1(c2ccccc2)CC[C@]2(CCC(=O)N2)CN1)c1cc(C(F)(F)F)cc(C(F)(F)F)c1 [tosylate form I salt, (5S,8S)-8-[{(1R)-1-(3,5-Bis-(trifluoromethyl)phenyl)-ethoxy}-methyl]-8-phenyl-1,7-diazaspiro[4.5]decan-2-one]		
								C[C@@H](OC[C@@]1(c2ccccc2)CC[C@]2(CCC(=O)N2)CN1)c1cc(C(F)(F)F)cc(C(F)(F)F)c1 [anhydrous form I salt, (5S,8S)-8-[{(1R)-1-(3,5-Bis-(trifluoromethyl)phenyl)-ethoxy}-methyl]-8-phenyl-1,7-diazaspiro[4.5]decan-2-one]		returns the crystals to the monohydrate form
